The term IC50 denotes the concentration needed to halve the response being measured.

Like-named read-outs stand apart in the source and are kept apart here.

From patent US9493441B2, “Acyclic cyanoethylpyrazoles as janus kinase inhibitors” (Merck Sharp & Dohme Corp., priority 2011, dated 2016) come the findings set out here.

One test has as its target JAK1 (Homo sapiens (Human), UniProt P23458). The test is described as follows: Jak biochemical HTRF assay, JAK1. Background: TR-FRET usually uses a lanthanide donor and a delayed reading to cut background.
A further test deals with JAK2 (Homo sapiens (Human), UniProt O60674). Description: Jak biochemical HTRF assay, JAK2.
[1] abbreviates: JAK1 IC50 (nM), recombinant GST-tagged catalytic domain, [ATP] 31.8 μM.
Setting [2] is: JAK2 IC50 (nM), recombinant GST-tagged catalytic domain, [ATP] […].

Chain of JAK1 (P23458 875-1153): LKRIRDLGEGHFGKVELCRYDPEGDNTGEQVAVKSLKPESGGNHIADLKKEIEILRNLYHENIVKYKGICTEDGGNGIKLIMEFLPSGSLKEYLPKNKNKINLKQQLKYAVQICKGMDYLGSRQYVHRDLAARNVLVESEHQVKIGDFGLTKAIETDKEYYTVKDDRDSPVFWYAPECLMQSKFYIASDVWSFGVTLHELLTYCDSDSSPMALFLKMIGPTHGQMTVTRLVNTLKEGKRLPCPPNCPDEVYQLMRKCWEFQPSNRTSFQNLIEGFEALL
Chain of JAK2 (O60674 849-1124): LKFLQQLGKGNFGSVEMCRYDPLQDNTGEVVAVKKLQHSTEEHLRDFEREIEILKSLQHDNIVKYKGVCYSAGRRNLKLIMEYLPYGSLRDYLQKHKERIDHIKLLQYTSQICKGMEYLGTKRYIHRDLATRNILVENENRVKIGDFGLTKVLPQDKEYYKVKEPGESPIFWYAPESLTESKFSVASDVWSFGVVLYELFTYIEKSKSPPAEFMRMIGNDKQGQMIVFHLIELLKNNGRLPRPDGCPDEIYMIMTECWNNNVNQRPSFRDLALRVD

Take `N#CCC(C1CC1)n1cc(C(N)=O)c(Nc2ccc(C(F)(F)F)cc2)n1` (stereo not drawn) [Example 4-3, 1-(2-cyano-1-cyclopropylethyl)-3-{[4-(trifluoromethyl)phenyl]amino}-1H-pyrazole-4-carboxamide]: the IC50 at JAK1 (setting [1]) was found to be 12 nM; at JAK2 (setting [2]) it was 110 nM.

Consider `N#CC[C@@H](C1CCN(C(=O)OCC2CCOC2)CC1)n1cc(C(N)=O)c(Nc2ccc(F)cc2)n1` (stereo partly drawn) [Example 11-12, tetrahydrofuran-3-ylmethyl 4-[(1S)-1-{4-carbamoyl-3-[(4-fluorophenyl)amino]-1H-pyrazol-1-yl}-2-cyanoethyl]piperidine-1-carboxylate], for which the IC50 on JAK1 (setting [1]) worked out at 181 nM; on JAK2 (setting [2]) it was 1500 nM.

Take `N#CCC(C1CC1)n1cc(C(N)=O)c(Nc2ccc(F)cc2)n1` (stereo not drawn) [Example 4-11, l-(2-cyano-1-cyclopropylethyl)-3-[(4-fluorophenyl)amino]-1H-pyrazole-4-carboxamide]: the IC50 came to 9 nM at JAK1 (setting [1]) and 66 nM on JAK2 (setting [2]).

In the case of `N#CCC(C1CCOC1)n1cc(C(N)=O)c(Nc2ccccc2)n1` (stereo not drawn) [Example 1-14, 1-[2-cyano-1-(tetrahydrofuran-3-yl)ethyl]-3-(phenylamino)-1H-pyrazole-4-carboxamide], the IC50 worked out at 126 nM on JAK1 (setting [1]) and 1400 nM at JAK2 (setting [2]).

For the compound `N#CCC(C1CC1)n1cc(C(N)=O)c(Nc2ccc3c(c2)C=CS3(=O)=O)n1` (stereo not drawn) [Example 4-35, 1-(2-cyano-1-cyclopropylethyl)-3-[(1,1-dioxido-1-benzothiophen-5-yl)amino]-1H-pyrazole-4-carboxamide], the IC50 on JAK1 (setting [1]) was determined as 2 nM; at JAK2 (setting [2]), 34 nM.

For the compound `CN(C)C(=O)c1ccc(Nc2nn(C(CC#N)C3CC3)cc2C(N)=O)cc1` (stereo not drawn) [Example 4-22, 1-(2-cyano-1-cyclopropylethyl)-3-{[4-(dimethylcarbamoyl)phenyl]amino}-1H-pyrazole-4-carboxamide], the IC50 on JAK1 (setting [1]) worked out at 3 nM; at JAK2 (setting [2]), 16 nM.

As to `CC(OC(=O)N1CCC([C@H](CC#N)n2cc(C(N)=O)c(Nc3ccc(F)cc3)n2)CC1)C(F)(F)F` (stereo partly drawn) [Example 11-11, 2,2,2-trifluoro-1-methylethyl 4-[(1S)-1-{4-carbamoyl-3-[(4-fluorophenyl)amino]-1H-pyrazol-1-yl}-2-cyanoethyl]piperidine-1-carboxylate], the IC50 at JAK1 (setting [1]) was 46 nM; at JAK2 (setting [2]), 1040 nM.

Take “1-[(1R or 1S)-2-cyano-1-cyclopropylethyl]-3-{[4-(methylsulfonyl)phenyl]amino}-1H-pyrazole-4-carboxamide [Example 14-1]”: the IC50 at JAK1 (read-out: JAK1 IC50, recombinant GST-tagged catalytic domain, [ATP] 31.8 μM) turned out to be 1 nM; at JAK2 (read-out: JAK2 IC50, recombinant GST-tagged catalytic domain, [ATP] […]) it was 8 nM.

With `N#CCC(C1CCOCC1)n1cc(C(N)=O)c(Nc2ccccc2)n1` (stereo not drawn) [Example 1-9, 1-[2-cyano-1-(tetrahydro-2H-pyran-4-yl)ethyl]-3-(phenylamino)-1H-pyrazole-4-carboxamide], the results for the IC50 at JAK1 (setting [1]) and at JAK2 (setting [2]) were 241 nM and 1480 nM, respectively.

As to `CC(CC#N)(C1CC1)n1cc(C(N)=O)c(Nc2ccccc2)n1` (stereo not drawn) [Example 1-18, 1-(2-cyano-1-cyclopropyl-1-methylethyl)-3-(phenylamino)-1H-pyrazole-4-carboxamide], the IC50 was 195 nM at JAK1 (setting [1]) and 413 nM at JAK2 (setting [2]).

For the compound `N#CCC(C1CCCC1)n1cc(C(N)=O)c(Nc2ccc(C(=O)N3CCS(=O)(=O)CC3)cc2)n1` (stereo not drawn) [Example 1-5, 1-(2-cyano-1-cyclopentylethyl)-3-({4-[(1,1-dioxidothiomorpholin-4-yl)carbonyl]phenyl}amino)-1H-pyrazole-4-carboxamide], the IC50 was 9 nM at JAK1 (setting [1]) and 31 nM at JAK2 (setting [2]).

Consider `Cc1c(Cl)ncnc1N1CCC([C@H](CC#N)n2cc(C(N)=O)c(Nc3ccc(F)cc3)n2)CC1` [Example 13, 1-{(1S)-1-[1-(6-Chloro-5-methylpyrimidin-4-yl)piperidin-4-yl]-2-cyanoethyl}-3-[(4-fluorophenyl)amino]-1H-pyrazole-4-carboxamide], for which the IC50 on JAK1 (setting [1]) was 823 nM; at JAK2 (setting [2]) it was 1500 nM.
